Calls of active or inactive are those of the source. The calls are words filed in the database; no cut-off is given here.
Columns and labels:
HDF [1] = experiment: Cytoprotective activity in neonatal HDF assessed as reduction of BaP-induced tail moment at 10 uM after 24 hrs by comet assay; format: functional; details: Homo sapiens
[2] = Cytoprotective activity in neonatal HDF assessed as reduction of BaP-induced DNA strand breakage by measuring tunnel positive cells at 10 uM after 24 hrs (reference value: 15.96%); format: functional, Homo sapiens; parameters: scale not given: the % may be the effect or the level left
HDF [3] = experiment: Cytoprotective activity in neonatal HDF assessed as reduction of BaP-induced cell death at 10 uM after 24 hrs by MTT assay; format: functional; details: Homo sapiens
[4] = Cytotoxicity against neonatal HDF assessed as cell viability at 10 uM after 24 hrs by MTT assay relative to control; format: functional; details: Homo sapiens, read-out: Activity
HepG2 [5] = experiment: Cytoprotective activity in human HepG2 cells transfected with siPXR assessed as reduction of BaP-induced tail moment at 10 uM after 24 hrs by comet assay; format: functional, cell-based
Plasma = experiment: Plasma concentration in human at 60 mg by HPLC-MS analysis; format: ADME
[6] = biological target: RAC-alpha serine/threonine-protein kinase (Homo sapiens) (UniProt P31749); experiment: Induction of AKT phosphorylation at Ser473 in neonatal HDF at 10 uM by Western blot analysis; details: TDE = time-dependent effect
HepG2 [7] = experiment: Cytoprotective activity in human HepG2 cells assessed as reduction of BaP-induced tail moment at 10 uM after 24 hrs by comet assay; format: functional, cell-based
[8] = biological target: T1, Nuclear factor erythroid 2-related factor 2 (Homo sapiens) (UniProt Q16236); experiment: Induction of Nrf2 nuclear translocation in neonatal HDF at 10 uM after 2 hrs by DAPI staining-based confocal scanning laser microcopic analysis
T1 sequence (whole entry): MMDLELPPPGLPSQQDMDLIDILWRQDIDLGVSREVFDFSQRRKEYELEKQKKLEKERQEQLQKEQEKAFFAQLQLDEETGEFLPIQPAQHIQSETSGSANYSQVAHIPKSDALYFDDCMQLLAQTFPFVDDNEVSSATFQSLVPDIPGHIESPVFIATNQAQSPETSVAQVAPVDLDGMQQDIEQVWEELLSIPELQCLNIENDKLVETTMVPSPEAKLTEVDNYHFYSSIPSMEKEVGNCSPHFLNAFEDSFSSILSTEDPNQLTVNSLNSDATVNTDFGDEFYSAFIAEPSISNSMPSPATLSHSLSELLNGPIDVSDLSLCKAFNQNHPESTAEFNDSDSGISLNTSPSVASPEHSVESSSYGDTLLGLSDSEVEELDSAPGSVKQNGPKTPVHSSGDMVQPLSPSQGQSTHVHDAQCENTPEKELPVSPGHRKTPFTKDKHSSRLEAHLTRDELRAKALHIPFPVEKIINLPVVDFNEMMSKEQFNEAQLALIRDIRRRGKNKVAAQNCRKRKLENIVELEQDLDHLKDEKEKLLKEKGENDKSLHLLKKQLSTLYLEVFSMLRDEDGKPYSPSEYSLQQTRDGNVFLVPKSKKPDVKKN

[9] = biological target: T1, Nuclear factor erythroid 2-related factor 2 (Homo sapiens); experiment: Induction of Nrf2 nuclear translocation in BaP-treated neonatal HDF at 10 uM after 2 hrs by DAPI staining-based confocal scanning laser microcopic analysis in presence of PI3K/Akt inhibitor LY294002
HDF [10] = experiment: Cytoprotective activity in neonatal HDF assessed as reduction of BaP-induced tail moment at 10 uM after 24 hrs by comet assay in presence of PI3K/Akt inhibitor LY294002; format: functional; details: Homo sapiens
[11] = biological target: T1, Nuclear factor erythroid 2-related factor 2 (Homo sapiens); experiment: Induction of Nrf2 nuclear translocation in BaP-treated neonatal HDF at 10 uM after 2 hrs by DAPI staining-based confocal scanning laser microcopic analysis
[12] = biological target: T1, Nuclear factor erythroid 2-related factor 2 (Homo sapiens); experiment: Induction of Nrf2 nuclear translocation in BaP-treated neonatal HDF assessed as upregulation of NQO1 mRNA expression at 10 uM after 24 hrs by real-time PCR analysis relative to BaP-treated control
Homo sapiens = species on record: Homo sapiens; experiment: Induction of ERK phosphorylation at Thr202/Try204 in neonatal HDF at 10 uM by Western blot analysis; details: TDE = time-dependent effect
[13] = biological target: T2, Nuclear receptor subfamily 1 group I member 2 (Homo sapiens, UniProt O75469); experiment: Competitive binding affinity to PXR in human HepG2 cells at 0.01 to 50 uM by FRET analysis in presence of […]; format: cell-based
T2 sequence (O75469 whole entry): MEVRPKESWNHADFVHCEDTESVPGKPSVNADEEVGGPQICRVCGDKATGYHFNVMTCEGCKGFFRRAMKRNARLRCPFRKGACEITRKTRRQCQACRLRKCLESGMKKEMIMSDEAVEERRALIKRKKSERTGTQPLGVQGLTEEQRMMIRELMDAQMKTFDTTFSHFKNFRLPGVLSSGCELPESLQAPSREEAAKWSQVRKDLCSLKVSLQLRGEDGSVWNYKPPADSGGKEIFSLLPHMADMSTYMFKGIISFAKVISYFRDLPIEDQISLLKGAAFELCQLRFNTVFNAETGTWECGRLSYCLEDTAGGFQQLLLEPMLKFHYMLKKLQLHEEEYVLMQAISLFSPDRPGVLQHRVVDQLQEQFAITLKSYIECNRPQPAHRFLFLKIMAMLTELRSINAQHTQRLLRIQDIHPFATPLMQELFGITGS

RAC-alpha serine/threonine-protein kinase (Homo sapiens), sequence (P31749 whole entry): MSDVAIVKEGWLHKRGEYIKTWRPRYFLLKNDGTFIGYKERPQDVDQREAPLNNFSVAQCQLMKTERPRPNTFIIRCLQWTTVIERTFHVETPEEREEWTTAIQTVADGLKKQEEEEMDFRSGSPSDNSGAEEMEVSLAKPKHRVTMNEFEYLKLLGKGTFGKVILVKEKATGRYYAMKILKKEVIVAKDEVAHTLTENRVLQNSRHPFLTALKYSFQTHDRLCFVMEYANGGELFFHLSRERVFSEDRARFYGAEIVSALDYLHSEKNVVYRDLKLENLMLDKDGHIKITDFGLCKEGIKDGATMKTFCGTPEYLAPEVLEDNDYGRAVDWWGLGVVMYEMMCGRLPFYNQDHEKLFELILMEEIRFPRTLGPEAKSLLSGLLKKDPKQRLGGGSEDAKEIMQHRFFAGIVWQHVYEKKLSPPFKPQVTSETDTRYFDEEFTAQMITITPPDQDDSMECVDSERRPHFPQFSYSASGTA

Row | SMILES | Activity (HDF [1]) | Activity [2] [%] | Activity (HDF [3]) | viability at 10 µM [4] [%] | Activity (HepG2 [5]) | concentration (Plasma) [nM] | Activity [6] | Activity (HepG2 [7]) | Activity [8] | Activity [9] | Activity (HDF [10]) | Activity [11] | fold change (FC) [12] | Activity (Homo sapiens) | Activity [13]
1 | CC(C)=CCC[C@@](C)(O)[C@H]1CC[C@]2(C)[C@@H]1[C@H](O)C[C@@H]1[C@@]3(C)CC[C@H](O[C@@H]4O[C@H](CO)[C@@H](O)[C@H](O)[C@H]4O[C@@H]4O[C@H](CO)[C@@H](O)[C@H](O)[C@H]4O)C(C)(C)[C@@H]3CC[C@]12C | inactive | 12.76 | inactive | 105 | – | – | – | – | – | – | – | – | – | – | –
2 | CC(C)=CCC[C@](C)(O[C@@H]1O[C@H](CO[C@@H]2O[C@H](CO)[C@@H](O)[C@H](O)[C@H]2O)[C@@H](O)[C@H](O)[C@H]1O)[C@H]1CC[C@]2(C)[C@@H]1[C@H](O)C[C@@H]1[C@@]3(C)CC[C@H](O[C@@H]4O[C@H](CO)[C@@H](O)[C@H](O)[C@H]4O[C@@H]4O[C@H](CO)[C@@H](O)[C@H](O)[C@H]4O)C(C)(C)[C@@H]3CC[C@]12C [GINSENOSIDE RB1] | inactive | 9.77 | inactive | 91 | – | – | – | – | – | – | – | – | – | – | –
3 | CC(C)=CCC[C@](C)(O[C@@H]1O[C@H](CO)[C@@H](O)[C@H](O)[C@H]1O)[C@H]1CC[C@]2(C)[C@@H]1[C@H](O)C[C@@H]1[C@@]3(C)CC[C@H](O)C(C)(C)[C@@H]3[C@@H](O[C@@H]3O[C@H](CO)[C@@H](O)[C@H](O)[C@H]3O)C[C@]12C [GINSENOSIDE RG1] | inactive | 20.97 | inactive | 98 | – | – | – | – | – | – | – | – | – | – | –
4 | CC(C)=CCC[C@](C)(O)[C@H]1CC[C@]2(C)[C@@H]1[C@H](O)C[C@@H]1[C@@]3(C)CC[C@H](O[C@@H]4O[C@H](CO)[C@@H](O)[C@H](O)[C@H]4O[C@@H]4O[C@H](CO)[C@@H](O)[C@H](O)[C@H]4O)C(C)(C)[C@@H]3CC[C@]12C | Active | 3.07 | Active | 124 | inactive | 3 | tde | Active | Active | inactive | inactive | Active | 2 | tde | Active

— ChEMBL document CHEMBL3526152, “Cytoprotective effect of 20S-Rg3 on benzo[a]pyrene-induced DNA damage” (Drug Metab Dispos, 2012)
